Test results taken from ChEMBL document CHEMBL3769401, “The first potent diphenyl phosphonate KLK4 inhibitors with unexpected binding kinetics” (Medchemcomm, 2015).
pIC50: −log10 of the molar value. Calls of active or inactive are those of the source. The calls are words filed in the database; no cut-off is given here.

Assays:
Acetylcholinesterase = Acetylcholinesterase (Electrophorus electricus, UniProt O42275); experiment: Inhibition of Electrophorus electricus AChE using acetylthiocholine iodide as substrate by 5-5'-Dithiobis(2 nitrobenzoic acid)-based assay
Acetylcholinesterase, sequence (O42275 whole entry): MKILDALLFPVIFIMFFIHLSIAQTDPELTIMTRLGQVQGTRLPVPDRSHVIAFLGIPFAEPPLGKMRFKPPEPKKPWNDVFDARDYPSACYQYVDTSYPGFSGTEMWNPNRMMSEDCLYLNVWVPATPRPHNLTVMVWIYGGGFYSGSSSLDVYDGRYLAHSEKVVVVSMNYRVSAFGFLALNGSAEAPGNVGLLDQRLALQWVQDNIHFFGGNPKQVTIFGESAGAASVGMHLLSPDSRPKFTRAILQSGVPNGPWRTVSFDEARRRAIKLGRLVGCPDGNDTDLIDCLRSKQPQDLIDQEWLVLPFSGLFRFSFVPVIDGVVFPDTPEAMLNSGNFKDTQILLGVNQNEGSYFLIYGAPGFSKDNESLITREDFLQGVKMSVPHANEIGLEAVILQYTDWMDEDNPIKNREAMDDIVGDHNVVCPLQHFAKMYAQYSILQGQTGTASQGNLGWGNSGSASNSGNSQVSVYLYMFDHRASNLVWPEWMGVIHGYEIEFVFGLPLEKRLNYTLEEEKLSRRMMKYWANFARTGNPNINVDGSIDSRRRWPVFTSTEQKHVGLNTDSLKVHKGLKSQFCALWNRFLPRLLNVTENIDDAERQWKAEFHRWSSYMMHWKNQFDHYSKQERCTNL

Prothrombin [1] = biological target: T1, Prothrombin (Homo sapiens, UniProt P00734); experiment: Inhibition of human plasma thrombin using Biophen CS-21(66) as substrate preincubated for 15 mins followed by substrate addition by microplate reader analysis; type: cell-free
[2] = biological target: Tissue-type plasminogen activator (Homo sapiens, UniProt P00750); experiment: Inhibition of recombinant tPA (unknown origin) using Biophen CS-05(88) as substrate
Tissue-type plasminogen activator, sequence (P00750 whole entry): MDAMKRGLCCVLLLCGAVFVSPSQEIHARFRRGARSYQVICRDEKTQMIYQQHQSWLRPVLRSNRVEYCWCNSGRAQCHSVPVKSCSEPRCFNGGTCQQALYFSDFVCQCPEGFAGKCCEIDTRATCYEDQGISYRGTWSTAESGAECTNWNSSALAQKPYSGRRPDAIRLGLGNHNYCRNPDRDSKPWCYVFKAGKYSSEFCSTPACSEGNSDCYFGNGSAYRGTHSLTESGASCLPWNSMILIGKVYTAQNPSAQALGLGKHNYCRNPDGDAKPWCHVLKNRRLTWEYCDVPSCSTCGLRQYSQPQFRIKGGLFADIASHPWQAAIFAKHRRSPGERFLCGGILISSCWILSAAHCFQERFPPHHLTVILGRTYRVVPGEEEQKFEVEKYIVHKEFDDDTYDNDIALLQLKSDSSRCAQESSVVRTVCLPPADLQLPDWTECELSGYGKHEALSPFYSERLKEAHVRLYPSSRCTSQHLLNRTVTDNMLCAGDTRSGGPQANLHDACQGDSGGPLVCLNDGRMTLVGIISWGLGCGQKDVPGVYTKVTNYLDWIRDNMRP

Homo sapiens [3] = species on record: Homo sapiens; experiment: Selectivity ratio of IC50 for human recombinant KLK2 to IC50 for human recombinant KLK4
Kallikrein-8 = biological target: T2, Kallikrein-8 (Homo sapiens, UniProt O60259); experiment: Inhibition of human recombinant KLK8 expressed in Escherichia coli using Bachem I-1120 as substrate preincubated for 15 mins followed by substrate addition by microplate reader analysis
T2 sequence (O60259 whole entry): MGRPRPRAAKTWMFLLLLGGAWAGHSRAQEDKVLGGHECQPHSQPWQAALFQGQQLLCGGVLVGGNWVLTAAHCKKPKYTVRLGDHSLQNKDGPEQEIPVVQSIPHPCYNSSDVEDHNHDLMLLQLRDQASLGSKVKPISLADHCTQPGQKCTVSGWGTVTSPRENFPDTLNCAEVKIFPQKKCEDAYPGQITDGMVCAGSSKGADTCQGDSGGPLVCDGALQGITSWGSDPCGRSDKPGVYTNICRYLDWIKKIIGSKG

Homo sapiens [4] = species on record: Homo sapiens; experiment: Selectivity ratio of IC50 for human plasma plasmin to IC50 for human recombinant KLK4
[5] = biological target: Urokinase-type plasminogen activator (Homo sapiens, UniProt P00749); experiment: Inhibition of recombinant uPA (unknown origin) using Biophen CS-61(44) as substrate
Plasminogen = Plasminogen (Homo sapiens, UniProt P00747); experiment: Inhibition of human plasma plasmin using Biophen CS-21(66) as substrate; type: cell-free
Plasminogen, sequence (P00747 97-580 limits assumed): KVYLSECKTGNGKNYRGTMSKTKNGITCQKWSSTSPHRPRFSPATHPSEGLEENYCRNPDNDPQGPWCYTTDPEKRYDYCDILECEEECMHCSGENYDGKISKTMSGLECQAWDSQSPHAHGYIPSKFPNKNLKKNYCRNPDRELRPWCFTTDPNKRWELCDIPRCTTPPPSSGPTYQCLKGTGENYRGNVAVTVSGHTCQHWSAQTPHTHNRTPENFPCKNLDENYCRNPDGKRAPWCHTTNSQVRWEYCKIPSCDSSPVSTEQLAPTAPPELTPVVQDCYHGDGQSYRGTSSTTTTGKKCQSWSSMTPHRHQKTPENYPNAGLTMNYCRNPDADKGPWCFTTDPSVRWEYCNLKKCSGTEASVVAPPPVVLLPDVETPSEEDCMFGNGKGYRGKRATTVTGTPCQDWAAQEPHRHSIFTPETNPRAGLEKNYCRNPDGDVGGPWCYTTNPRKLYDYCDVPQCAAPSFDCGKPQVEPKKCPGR
Plasminogen, sequence (P00747 581-810 limits assumed): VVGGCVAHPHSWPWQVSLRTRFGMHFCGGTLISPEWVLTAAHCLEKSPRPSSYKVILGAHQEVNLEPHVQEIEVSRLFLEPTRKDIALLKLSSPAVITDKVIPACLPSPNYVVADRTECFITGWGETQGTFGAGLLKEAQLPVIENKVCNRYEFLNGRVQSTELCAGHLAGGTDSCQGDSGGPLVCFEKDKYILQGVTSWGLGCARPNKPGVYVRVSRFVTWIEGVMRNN

Coagulation factor X = Coagulation factor X (Homo sapiens, UniProt P00742); experiment: Inhibition of factor 10a (unknown origin) using Biophen CS-11(32) as substrate
Coagulation factor X, sequence (P00742 41-179 limits assumed): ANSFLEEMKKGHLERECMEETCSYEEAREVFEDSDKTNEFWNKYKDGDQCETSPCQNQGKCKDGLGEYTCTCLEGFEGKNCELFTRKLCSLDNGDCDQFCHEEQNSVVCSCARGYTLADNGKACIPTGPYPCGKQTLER
Coagulation factor X, sequence (P00742 235-488 limits assumed): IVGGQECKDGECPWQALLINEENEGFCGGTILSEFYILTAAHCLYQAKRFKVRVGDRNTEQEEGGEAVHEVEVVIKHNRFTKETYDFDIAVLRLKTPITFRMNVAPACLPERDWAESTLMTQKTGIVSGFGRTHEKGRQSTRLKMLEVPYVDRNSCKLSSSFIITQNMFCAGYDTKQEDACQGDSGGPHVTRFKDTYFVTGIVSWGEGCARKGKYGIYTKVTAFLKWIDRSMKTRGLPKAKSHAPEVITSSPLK

Kallikrein-2 = biological target: T3, Kallikrein-2 (Homo sapiens, UniProt P20151); experiment: Inhibition of human recombinant KLK2 expressed in Escherichia coli using Bachem I-1295 as substrate preincubated for 15 mins followed by substrate addition by microplate reader analysis
T3 sequence (P20151 whole entry): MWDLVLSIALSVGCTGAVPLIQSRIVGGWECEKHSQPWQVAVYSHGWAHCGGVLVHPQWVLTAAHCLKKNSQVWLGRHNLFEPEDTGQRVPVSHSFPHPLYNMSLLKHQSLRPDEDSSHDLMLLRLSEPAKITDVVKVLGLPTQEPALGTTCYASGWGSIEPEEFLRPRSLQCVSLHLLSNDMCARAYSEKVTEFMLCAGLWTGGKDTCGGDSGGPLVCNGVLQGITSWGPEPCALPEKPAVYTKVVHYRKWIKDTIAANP

Kallikrein-4 [6] = biological target: T4, Kallikrein-4 (Homo sapiens, UniProt Q9Y5K2); experiment: Inhibition of human recombinant KLK4 expressed in Escherichia coli using Bachem I-1120 as substrate preincubated for 15 mins followed by substrate addition by microplate reader analysis
T4 sequence (Q9Y5K2 whole entry): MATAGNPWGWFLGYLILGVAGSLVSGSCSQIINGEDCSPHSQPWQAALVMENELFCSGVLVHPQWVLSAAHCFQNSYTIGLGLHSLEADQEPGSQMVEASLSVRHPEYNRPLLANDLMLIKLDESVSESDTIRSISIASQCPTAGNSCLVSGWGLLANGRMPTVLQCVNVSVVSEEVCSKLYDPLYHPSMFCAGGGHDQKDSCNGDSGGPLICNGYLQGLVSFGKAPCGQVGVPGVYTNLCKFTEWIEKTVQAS

[7] = Selectivity ratio of IC50 for Electrophorus electricus AChE to IC50 for human recombinant KLK4
[8] = biological target: T5, Kallikrein-2 (Homo sapiens) (UniProt P20151); experiment: Reversible inhibition of human recombinant KLK2 expressed in Escherichia coli using H-Pro-Phe-Arg-AMC as fluorogenic substrate at 100 times IC50 preincubated for 15 mins followed by 100 fold dilution measured for 1 hr
T5 sequence (whole entry): T3 sequence (P20151 whole entry)

Homo sapiens [9] = species on record: Homo sapiens; experiment: Selectivity ratio of IC50 for factor 10a (unknown origin) to IC50 for human recombinant KLK4
Homo sapiens [10] = species on record: Homo sapiens; experiment: Selectivity ratio of IC50 for recombinant uPA (unknown origin) to IC50 for human recombinant KLK4
Kallikrein-4 [11] = biological target: T4, Kallikrein-4; experiment: Reversible inhibition of human recombinant KLK4 expressed in Escherichia coli using Bachem I-1120 as fluorogenic substrate at 100 times IC50 preincubated for 15 mins followed by 100 fold dilution measured for 1 hr by microplate reader analysis
Homo sapiens [12] = species on record: Homo sapiens; experiment: Selectivity ratio of IC50 for human plasma thrombin to IC50 for human recombinant KLK4
Kallikrein-1 [13] = biological target: T6, Kallikrein-1 (Homo sapiens, UniProt P06870); experiment: Inhibition of human recombinant KLK1 expressed in Escherichia coli using Bachem I-1295 as substrate preincubated for 15 mins followed by substrate addition by microplate reader analysis
Target sequence in this assay (P06870 whole entry): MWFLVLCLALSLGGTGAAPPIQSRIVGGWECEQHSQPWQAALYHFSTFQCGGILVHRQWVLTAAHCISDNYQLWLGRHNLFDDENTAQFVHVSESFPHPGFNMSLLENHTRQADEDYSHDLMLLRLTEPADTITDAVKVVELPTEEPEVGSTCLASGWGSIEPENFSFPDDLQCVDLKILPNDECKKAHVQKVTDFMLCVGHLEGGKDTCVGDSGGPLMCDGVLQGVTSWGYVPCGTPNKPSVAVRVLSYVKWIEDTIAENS

Homo sapiens [14] = species on record: Homo sapiens; experiment: Selectivity ratio of IC50 for human recombinant KLK8 to IC50 for human recombinant KLK4
Homo sapiens [15] = species on record: Homo sapiens; experiment: Selectivity ratio of IC50 for human recombinant KLK1 to IC50 for human recombinant KLK4
Kallikrein-1 [16] = biological target: T6, Kallikrein-1; experiment: Reversible inhibition of human recombinant KLK1 expressed in Escherichia coli using H-Pro-Phe-Arg-AMC as fluorogenic substrate at 100 times IC50 preincubated for 15 mins followed by 100 fold dilution measured for 1 hr
Target sequence in this assay (P06870 25-262 limits assumed): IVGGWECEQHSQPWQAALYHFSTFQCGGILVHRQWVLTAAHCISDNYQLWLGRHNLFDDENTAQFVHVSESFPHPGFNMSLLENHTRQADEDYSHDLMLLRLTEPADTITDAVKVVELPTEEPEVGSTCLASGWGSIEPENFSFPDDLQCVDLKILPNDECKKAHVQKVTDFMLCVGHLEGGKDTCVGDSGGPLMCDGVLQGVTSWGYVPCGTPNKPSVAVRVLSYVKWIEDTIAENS

Homo sapiens [17] = species on record: Homo sapiens; experiment: Selectivity ratio of IC50 for recombinant tPA (unknown origin) to IC50 for human recombinant KLK4
[18] = biological target: T7, Kallikrein-8 (Homo sapiens) (UniProt O60259); experiment: Reversible inhibition of human recombinant KLK8 expressed in Escherichia coli using Boc-Val-Pro-Arg-AMC as fluorogenic substrate at 100 times IC50 preincubated for 15 mins followed by 100 fold dilution measured for 1 hr
T7 sequence (whole entry): T2 sequence (O60259 whole entry)

Prothrombin [19] = biological target: T1, Prothrombin; experiment: Reversible inhibition of human thrombin using Biophen CS-21(66) as substrate at 100 times IC50 preincubated for 15 mins followed by 100 fold dilution measured for 1 hr
[20] = biological target: T7, Kallikrein-8 (Homo sapiens); experiment: Irreversible inhibition of human recombinant KLK8 expressed in Escherichia coli using Boc-Val-Pro-Arg-AMC as fluorogenic substrate at 100 times IC50 preincubated for 15 mins followed by 100 fold dilution measured for 1 hr
[21] = biological target: T5, Kallikrein-2 (Homo sapiens); experiment: Irreversible inhibition of human recombinant KLK2 expressed in Escherichia coli using H-Pro-Phe-Arg-AMC as fluorogenic substrate at 100 times IC50 preincubated for 15 mins followed by 100 fold dilution measured for 1 hr
[22] = biological target: T8, Subtilisin Carlsberg (Bacillus licheniformis) (UniProt P00780); experiment: Inhibition of Bacillus licheniformis subtilisin using Suc-Ala-Ala-Pro-Phe-AMC as substrate by spectrofluorometry
T8 sequence (whole entry): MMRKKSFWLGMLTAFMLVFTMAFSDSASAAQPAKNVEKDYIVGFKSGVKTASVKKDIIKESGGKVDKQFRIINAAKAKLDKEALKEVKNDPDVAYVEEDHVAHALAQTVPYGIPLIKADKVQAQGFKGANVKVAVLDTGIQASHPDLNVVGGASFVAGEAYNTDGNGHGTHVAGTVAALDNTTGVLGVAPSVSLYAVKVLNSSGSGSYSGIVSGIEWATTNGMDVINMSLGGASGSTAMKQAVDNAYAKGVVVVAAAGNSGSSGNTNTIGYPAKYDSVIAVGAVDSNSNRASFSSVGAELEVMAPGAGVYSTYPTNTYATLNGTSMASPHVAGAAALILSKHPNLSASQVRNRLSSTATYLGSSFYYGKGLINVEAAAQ

Kallikrein-1 [23] = biological target: T6, Kallikrein-1; experiment: Irreversible inhibition of human recombinant KLK1 expressed in Escherichia coli using H-Pro-Phe-Arg-AMC as fluorogenic substrate at 100 times IC50 preincubated for 15 mins followed by 100 fold dilution measured for 1 hr
Target sequence in this assay (P06870 25-262 limits assumed): as the sequence (P06870 25-262 limits assumed) above

Structure (SMILES) | pIC50 (Acetylcholinesterase) | pIC50 (Prothrombin [1]) | pIC50 [2] | pIC50 (Kallikrein-8) | pIC50 [5] | pIC50 (Plasminogen) | pIC50 (Coagulation factor X) | pIC50 (Kallikrein-2) | pIC50 (Kallikrein-4 [6]) | reversible inhibition (activity call) (Kallikrein-4 [11]) | pIC50 (Kallikrein-1 [13]) | further results
N=C(N)Nc1ccc(C(NC(=O)OCc2ccccc2)P(=O)(Oc2ccccc2)Oc2ccccc2)cc1 (stereo not given) | < 5.00 | 3.60 | 3.60 | 5.94 | 5.57 | 5.31 | 5.44 | 6.66 | 8.47 | Active | 6.62 | Ratio IC50 (Homo sapiens [3]): 70; Ratio IC50 (Homo sapiens [4]): > 300; Ratio IC50 [7]: > 300; inhibition [8]: Active; Ratio IC50 (Homo sapiens [9]): > 300; Ratio IC50 (Homo sapiens [10]): > 300; Ratio IC50 (Homo sapiens [12]): > 300; Ratio IC50 (Homo sapiens [14]): > 300; Ratio IC50 (Homo sapiens [15]): 70; inhibition (Kallikrein-1 [16]): Active; Ratio IC50 (Homo sapiens [17]): > 300
N=C(N)Nc1ccc(CC(NC(=O)OCc2ccccc2)P(=O)(Oc2ccccc2)Oc2ccccc2)cc1 (stereo not given) | < 4.70 |  |  | 6.77 |  |  | < 5.00 | 6.28 |  | Active | < 5.00 | inhibition [18]: Active; inhibition (Prothrombin [19]): Active; inhibition [8]: Active
Nc1ccc(CC(NC(=O)OCc2ccccc2)P(=O)(Oc2ccccc2)Oc2ccccc2)cc1 (stereo not given) |  | 4.21 | 4.49 | < 5.00 | 4.70 |  | < 5.00 | < 5.00 | < 5.00 |  | < 5.00 | 
N=C(N)c1ccc(C(NC(=O)OCc2ccccc2)P(=O)(Oc2ccccc2)Oc2ccccc2)cc1 (stereo not given) | < 5.00 | 6.71 | < 5.60 | 6.10 |  | < 5.60 | < 5.60 | < 5.60 | 7.39 | Active | < 5.60 | inhibition (Prothrombin [19]): Active; inhibition [20]: Active
N=C(N)Nc1ccc(CP(=O)(Oc2ccccc2)Oc2ccccc2)cc1 | < 5.00 | < 5.00 | < 5.00 | 5.84 | 5.85 | < 5.00 | < 5.00 | 5.61 | 6.60 | Active | < 5.60 | inhibition [18]: Active; inhibition [21]: Active
CC(C)[C@H](NC(=O)OC(C)(C)C)C(=O)N1CCC[C@H]1C(=O)N[C@H](Cc1ccccc1)P(=O)(Oc1ccc(CS)cc1)Oc1ccc(CS)cc1 |  |  |  |  |  |  |  |  |  |  |  | Kapp [22]: 1 ×10⁵ /M/s
O=C(NC(c1ccc(O)cc1)P(=O)(Oc1ccccc1)Oc1ccccc1)OCc1ccccc1 (stereo not given) | < 5.00 | < 5.00 | < 5.00 | < 5.00 | < 5.00 | < 5.00 | < 5.00 | < 5.60 | < 5.00 |  | 7.07 | inhibition (Kallikrein-1 [23]): Active
N=C(N)Nc1ccc(CCP(=O)(Oc2ccccc2)Oc2ccccc2)cc1 | < 5.00 | < 5.00 | < 5.00 | 6.77 | 8.10 | < 5.00 | < 5.00 | 5.52 | 7.10 | Active | < 5.60 | inhibition [18]: Active; inhibition [21]: Active
N=C(N)NCCCC(NC(=O)OCc1ccccc1)P(=O)(Oc1ccccc1)Oc1ccccc1 (stereo not given) | < 5.00 | 6.10 |  | 6.90 |  |  | < 5.00 | < 5.60 | 7.40 | Active | 6.09 | inhibition (Prothrombin [19]): Active
N=C(N)c1ccc(CCC(NC(=O)OCc2ccccc2)P(=O)(Oc2ccccc2)Oc2ccccc2)cc1 (stereo not given) | < 4.70 |  |  | 5.30 |  |  |  | 6.14 | 7.82 | Active | 5.86 | inhibition [8]: Active
Nc1ccc(C(NC(=O)OCc2ccccc2)P(=O)(Oc2ccccc2)Oc2ccccc2)cc1 (stereo not given) | < 5.00 | < 5.00 | < 5.00 | < 5.00 | < 5.00 | < 5.00 | < 5.00 | < 5.60 | < 5.00 |  | < 5.00 | 
NCCCC(NC(=O)OCc1ccccc1)P(=O)(Oc1ccccc1)Oc1ccccc1 (stereo not given) | < 5.00 | < 5.60 | < 5.60 | < 5.00 | < 3.60 | < 3.60 | < 3.60 | < 5.60 | < 5.60 |  | < 5.00 | 
